# Results from patent publication US4434162A, “Phosphonic acid ester, pharmaceutical compositions containing the same and method of using the same” (Kanebo, Ltd., priority 1982, dated 1984).
# Entries after “also recorded” stand apart in the source; their conditions may differ.
# Experiments:
# dogs = assay: Increase in coronary blood flow upon intravenous administration into dogs; type: in vivo, dog; conditions: for Increase in coronary blood flow (Δ% ± standard error): anaesthetized dogs, intravenous (femoral vein), dose 0.1 mg/kg, circumflex branch of left coronary; for activity in increasing coronary blood flow (in words): comparison with other esters
# Procedure: (b) Intravenous administration into dogs.
# Increase in coronary blood flow upon intravenous administration of a test compound into dogs was tested. Compounds tested were 4-(benzothiazol-2-yl)benzylphosphonic acid ethyl isopropyl ester and, as a control, diltiazem, 4-(benzothiazol-2-yl)benzylphosphonic acid diethyl ester and 2-(benzothiazol-2-yl)-5-picolinylphosphonic acid diethyl ester.
# Dogs weighing 10 to 13 kg were anaesthetized with pentobarbital sodium (35 mg/kg, intraperitoneal) and, under supportive respiration, a thoractomy was performed by removing the fourth left rib. The pericardial membrane was then incised to expose the heart. The test compound was dissolved in 50% aqueous ethanol and injected into the femoral vein. The blood flow through circumflex branch of left coronary was measured before and after the administration of drugs with an electromagnetic flowmeter (Nihon Kohden, MF-26).
# male ddY mice = assay: Acute toxicity test in mice; conditions: mouse, in vivo; listed as compound of the invention
# Procedure: (§1) An acute toxicity test was carried out in male ddY mice (in groups of 5 animals, body weights 20.congruent.2 g) by the intraperitoneal administration of a test compound. The LD50 values were calculated by the method of Weil based on the number of deaths within 72 hours.
# [1] = Acute toxicity test in mice; conditions: mouse, in vivo, ip; male ddY mice, intraperitoneal; deaths within 72 hours, method of Weil
# Procedure: as §1
# [2] = tested on: isolated guinea pig heart; assay: Action on coronary flow of the isolated guinea pig heart (Langendorff); conditions: Cavia porcellus, 100 γ/ml in propylene glycol, 0.1 ml infused at 0.1 ml/min, read-out: Increase in coronary flow (Δ% ± standard error)
# Procedure: (a) Action on the isolated guinea pig heart.
# Male guinea-pigs with body weights from 400 to 500 g were slaughtered and promptly thoractomized. After the ascending aorta was cannulated, the heart was enucleated. By the method of Langendorff, this isolated heart was perfused with the Krebs-Henseleit fluid oxygenated with a gaseous mixture of 95% O2 and 5% CO2 at the fluid temperature of 34±1° C. and the perfusion pressure of 60 cm H2 O, and the test compound was infused. The coronary flows before and after infusion were measured and the percent gain in coronary flow was obtained. The coronary flow was measured with a square-wave electromagnetic flowmeter (Nihon Kohden, MF-26) with an extracorporeal probe (Nihon Kohden, FE) set at the top of the cannula and recorded with a multipurpose polygraph (Nihon Kohden, RM-85). The test compound was dissolved in propylene glycol to a concentration of 100 γ/ml and 0.1 ml of the solution was infused at the rate of 0.1 ml/min. For reference, the corresponding data on diltiazem is also shown.
Structure (SMILES),Increase in coronary blood flow (Δ% ± standard error) (dogs),activity in increasing coronary blood flow (in words) (dogs; listed as asymmetric type ester of the invention),activity in increasing coronary blood flow (in words) (dogs; listed as compound of the invention),acute toxicity (in words) (male ddY mice),LD50 at 72 h [1] [mg/kg],"activation at 100 µg/mL, 0.01 mg [2] [%]"
"CCOP(=O)(Cc1ccc(-c2nc3ccccc3s2)nc1)OCC [2-(benzothiazol-2-yl)-5-picolinylphosphonic acid diethyl ester, reference compound]",83.0 ± 12.3 Δ%,,,,,
CCOP(=O)(Cc1ccc(-c2nc3ccccc3s2)cc1)OC(C)C (centres unmarked) [4-(benzothiazol-2-yl)benzylphosphonic acid isopropyl ethyl ester],75.3 ± 2.9 Δ%,high activity in increasing coronary blood flow in comparison with other asymmetric and cyclic esters of this type,somewhat lower in its activity of increasing coronary blood flow than the corresponding diethyl ester compound,low acute toxicity; also recorded: lower acute toxicity than such compound,1790,76.9 ± 24.4
"CCOP(=O)(Cc1ccc(-c2nc3ccccc3s2)cc1)OCC [4-(benzothiazol-2-yl)benzylphosphonic acid diethyl ester, reference compound]",82.2 ± 5.0 Δ%,,,,,
"COc1ccc([C@@H]2Sc3ccccc3N(CCN(C)C)C(=O)[C@@H]2OC(C)=O)cc1 [Diltiazem, diltiazem, reference compound]",105.6 ± 14.1 Δ%,,,,177,66 ± 7.1
